# From patent publication US20200367756A1, “METHOD AND SYSTEM FOR IN VIVO DETECTION OF ADIPOSE TISSUE BROWNING” (Agency for Science, Technology and Research, priority 2018, published 2020)
# Entries after “also recorded” stand apart in the source; their conditions may differ.
# Columns and labels:
# [1] = tested on: WAT (browning of white adipose tissue); experiment: In vivo DRS measurement of lipid fraction (browning marker) in adipose tissue; parameters: species or system BALB/c nude mice
# From the text: In particular, FIG. 5 depicts a schematic drawing of an example setup of in vivo DRS measurement system 500 for obtaining (e.g., generating or measuring) diffuse reflectance spectrum information (raw diffuse reflectance spectrum information) in a mouse model with partial skin incision using DRS spectroscopy in the NIR II optical window. In this regard, browning was induced in mice for 7 days by β-adrenergic administration followed by DRS measurement in the 1050 to 1350 nm range using an excitation-collection fiber probe 506 with source-detector fiber separations 508 configured to achieve a desired or sufficient depth of interrogation. The measured diffuse reflectance spectrum information obtained at the adipose tissue site was then processed according to various example embodiments to extract or derive water and lipid chromophore fractions (or water and lipid proportions or ratios) at the adipose tissue site in the 1050 nm to 1350 nm wavelength range. The water and lipid chromophore fractions were estimated from the measured DRS spectra by employing a lookup table (LUT) based on inverse Monte-Carlo modelling. In other words, the measured DRS spectra at the adipose tissue site is spectrally unmixed particularly for water and lipid chromophores using the Monte-Carlo based LUT within the wavelength range of 1050 nm to 1400 nm, or more preferably, 1050 nm to 1350 nm. […]
# Ucp1 [2] = experiment: Western blot analysis of UCP1 protein in adipose tissues of treated mice; type: in vivo, BALB/c nude mice; conditions: loading control β-ACTIN, vs saline WAT, hydrate
# Description: (§1) Mice (n=4; each group) were injected daily with either CL 316, 243 hydrate (1 mg/kg body weight intraperitoneally in test group (CL) or equal volume of saline in control (C) group animals for 7 days. After the in vivo DRS experiment, the mice was euthanized and fresh WAT tissues in control (C) and CL group were extracted and immediately frozen for RNA and protein expression analyses. WAT from the inguinal region and BAT from the interscapular region were stored in 10% normal buffered formalin (NBF) for hematoxylin and eosin (H&E) staining and Immunohistochemistry (IHC). BAT tissues extracted from mice injected with saline is marked as C BAT while BAT from CL injected mice as CL BAT. Similarly, WAT and beige refer to the WATs in saline (control) and CL injected group, respectively.
# In various example embodiments, total protein lysates isolation from adipose tissues extracted from mice administered with either saline or CL (n=4, each group) was done in RadioImmunoPrecipitation Assay (RIPA) lysis buffer and quantified using the Biorad assay. Equal volume of proteins were loaded onto 10% Sodium Dodecyl Sulfate-Polyacrylamide Gel Electrophoresis (SDS-PAGE) followed by transfer to the PolyVinyliDene Fluoride (PVDF) membrane. […]
# Ucp1 [3] = experiment: Real-Time qPCR of Ucp1 mRNA in adipose tissues of treated mice; type: in vivo, BALB/c nude mice; conditions: normalized to Gapdh mRNA
# Description: as §1
# In various example embodiments, total RNA was extracted with the RNeasy Lipid Tissue Mini Kit (Qiagen, Hilden, Germany) according to the manufacturer's instruction and Real-Time PCR was conducted using UCP1 primer pair UCP1_F: 5′-GGCCTCTACGACTCAGTCCA-3′ and UCP1_R: 5′-TAAGCCGGCTGAGATCTTGT-3′. GAPDH was used to normalize the relative mRNA expression by using a primer pair GAPDH_F: 5′-CAA GGT CAT CCA CTT-3′ and GAPDH_R: 5′-GGC CAT CCA CAG TCT GG-3′. The results are represented as mean±SE (n=4 in each group).
# Ucp1 [4] = experiment: UCP1 immunohistochemistry (IHC) of WAT and BAT of treated mice; type: in vivo, BALB/c nude mice
# Description: as §1
# (§2) In various example embodiments, H&E staining and UCP1 IHC were performed by the Advanced Molecular Pathology Laboratory (AMPL) at the Institute of Molecular and Cell Biology (IMCB), A*STAR, according to standard operating procedures. 1:50 dilution of UCP1 antibody (Abcam) at pH 6.0 was used for UCP1 IHC. All the images were obtained by using Olympus microscope equipped with DS-L3+Filc camera with a ×20 objective lens. Software ImageJ was used to analyse the images.
# WAT and BAT adipocytes = experiment: H&E staining of WAT and BAT of treated mice; type: in vivo, BALB/c nude mice
# Description: as §1, §2
# [5] = inguinal WAT, vs saline control WAT, hydrate
# [6] = interscapular BAT, CL vs saline
smiles,measurement,setting,value
"C[C@H](Cc1ccc2c(c1)OC(C(=O)[O-])(C(=O)[O-])O2)NC[C@H](O)c1cccc(Cl)c1.[Na+].[Na+] [CL, CL 316, 243 hydrate]",lipid fraction (SLW) of beige adipose tissue (CL treated WAT),"[1]; mice, 1 mg/kg intraperitoneally daily for 7 days, DRS 1050 to 1350 nm, MCLUT unmixing, control WAT 0.70±0.095, BAT 0.518±0.112",0.628±0.076 a.u.
same,extent of WAT browning indicated by calculated SLW,"[1]; over a period of 7 days, CL treated animals",about 50%
same,UCP1 protein expression in WAT (beige),Ucp1 [2],significantly induced; also recorded: higher expression
same,Ucp1 mRNA expression in BAT,Ucp1 [3]; BAT (CL) vs BAT (C),did not significantly change
same,Ucp1 mRNA expression in WAT (beige) relative to saline control (WAT),"Ucp1 [3]; 1 mg/kg i.p. daily, 7 days",significantly enhanced
same,UCP1 IHC signal in WAT (beige),Ucp1 [4]; [5],significant emergence of UCP1 expression; also recorded: increased UCP1 staining
same,UCP1 IHC signal in BAT,Ucp1 [4]; [6],not changed
same,"adipocyte morphology in WAT (beige), H&E staining",WAT and BAT adipocytes; [5],subpopulation of multilocular adipocytes are emerging
same,"adipocyte appearance in BAT, H&E staining",WAT and BAT adipocytes; [6],appearance was not changed
